Counter-ions that a name gives are not always drawn. Like-named read-outs stand apart in the source and are kept apart here.
Target: T1, human α7 nAChR (Homo sapiens, UniProt P36544)
T1 construct: expressed in transfected cells; host or cells: GH4C1 (rat pituitary) cell line, stably transfected
Test: cell-based calcium flux assay (FLIPR) for PAM activity, nicotine-evoked response
Details: GH4C1 cell line stably transfected with human α7 nAChR, potentiation of nicotine calcium flux
Method: The PAM activity of the compounds of the invention at the α7 nAChR may be determined using the following cell-based calcium flux assay which uses a Fluorimetric Image Plate Reader (FLIPR) (see Schroeder et al.; J. Biomolecular Screening, 1(2), p 75-80, 1996). GH4C1 cell line stably transfected with human α7 nAChR was suspended in a 384 well plate and incubated at 30° C. for 48 h in a 5% carbon dioxide atmosphere. The growth media was removed and the cells washed three times with a solution of Hanks' balanced salt solution (HBSS), 20 mM HEPES and 2.5 mM probenecid leaving 20 μl washing solution in each well. A loading solution (20 μl) containing HBSS, probenecid, 1-4 μM Fluo4 AM (a calcium indicator dye) and pluronic acid was added and the plate incubated for 45 min at 37° C. under an atmosphere free from carbon dioxide. The cells were washed three times leaving 30 μl in each well. The plate containing the cells and calcium indicator dye were then transferred to the FLIPR. The assay was initiated by collecting baseline datapoints at 10 second intervals followed by addition of the test compound in buffer solution (0.33% DMSO) and diluted to a final concentration of 10 μM and serial dilution of the wells, 1:2 or 1:3, gave a low concentration of <1 nM. Following a further 5-10 mins 10 μl of 50 μM nicotine was added and data collected for 2-3 mins. Nicotine produced a rapid, transient and reproducible calcium flux which could be potentiated with the positive allosteric modulator test compounds.

[1] = read-out: pEC50 Mean (converted)

T1 sequence (P36544 23-502): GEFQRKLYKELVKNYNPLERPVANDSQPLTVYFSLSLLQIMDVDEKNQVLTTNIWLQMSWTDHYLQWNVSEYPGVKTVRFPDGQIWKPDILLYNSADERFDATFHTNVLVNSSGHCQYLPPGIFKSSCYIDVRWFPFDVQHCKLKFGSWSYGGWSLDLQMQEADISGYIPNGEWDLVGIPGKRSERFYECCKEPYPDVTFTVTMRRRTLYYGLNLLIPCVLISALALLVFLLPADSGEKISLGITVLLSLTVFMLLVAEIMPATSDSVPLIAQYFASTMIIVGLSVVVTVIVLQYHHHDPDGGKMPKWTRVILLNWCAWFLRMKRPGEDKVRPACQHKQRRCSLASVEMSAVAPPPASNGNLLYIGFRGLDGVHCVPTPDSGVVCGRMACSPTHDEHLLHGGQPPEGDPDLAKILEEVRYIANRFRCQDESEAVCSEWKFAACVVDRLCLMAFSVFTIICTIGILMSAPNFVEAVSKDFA

| Compound | EC50 [1] [µM] | also measured |
| --- | --- | --- |
| CC(F)(F)c1cc(NCc2cnc3[nH]c(C(F)(F)F)cc3c2)ncn1 [Example 8, 6-(1,1-Difluoroethyl)-N-{[2-(trifluoromethyl)-1H-pyrrolo[2,3-b]pyridin-5-yl]methyl}-4-pyrimidinamine] | ≤ 1 | EC50 (read-out: pEC50 (converted)): 1 µM |
| CC(F)(F)c1cc(NCc2cnc3[nH]c(C(F)(F)F)cc3c2)ncn1.Cl [8 HCl, 6-(1,1-Difluoroethyl)-N-{[2-(trifluoromethyl)-1H-pyrrolo[2,3-b]pyridin-5-yl]methyl}-4-pyrimidinamine hydrochloride] |  | pEC50: 6; pEC50 Mean: *** (pEC50 mean of at least 6.0) |
| Cl.FC(F)(F)c1cc2cc(CNc3cc(C4CC4)ncn3)cnc2[nH]1 [14 HCl] |  | pEC50 Mean: * (pEC50 mean of at least 5.0) |
| CC(F)c1cc(NCc2cnc3[nH]c(C(F)(F)F)cc3c2)ncn1 (stereo not drawn) [9 HCl] | ≤ 3.16 |  |
| Cc1c(NCc2cnc3[nH]c(C(F)(F)F)cc3c2)ncnc1C(C)(F)F [21 HCl] | ≤ 1 |  |
| Cl.FC(F)c1cc(NCc2cnc3[nH]c(C(F)(F)F)cc3c2)ncn1 [10 HCl, 6-(Difluoromethyl)-N-{[2-(trifluoromethyl)-1H-pyrrolo[2,3-b]pyridin-5-yl]methyl}-4-pyrimidinamine hydrochloride] |  | pEC50 Mean: ** (pEC50 mean of at least 5.5) |
| N#Cc1cc(NCc2cnc3[nH]c(C(F)(F)F)cc3c2)ncn1 [Example 3, 6-({[2-(Trifluoromethyl)-1H-pyrrolo[2,3-b]pyridin-5-yl]methyl}amino)-4-pyrimidinecarbonitrile] | ≤ 3.16 |  |
| CC(C)(C)c1cc(NCc2cnc3[nH]c(C(F)(F)F)cc3c2)ncn1 [Example 4, 6-(1,1-Dimethylethyl)-N-{[2-(trifluoromethyl)-1H-pyrrolo[2,3-b]pyridin-5-yl]methyl}-4-pyrimidinamine] | ≤ 3.16 |  |
| CCc1ncnc(NCc2cnc3[nH]c(C(F)(F)F)cc3c2)c1F [16 HCl, 6-Ethyl-5-fluoro-N-{[2-(trifluoromethyl}-1H-pyrrolo[2,3-b]pyridin-5-yl]methyl}-4-pyrimidinamine hydrochloride] | ≤ 1 |  |
| Cl.[2H]C([2H])(Nc1cc(C2CC2)ncn1)c1cnc2[nH]c(C(F)(F)F)cc2c1 [14-d HCl] | ≤ 3.16 |  |
| FCc1cc(NCc2cnc3[nH]c(C(F)(F)F)cc3c2)ncn1 [11 HCl, 6-(Fluoromethyl)-N-{[2-(trifluoromethyl)-1H-pyrrolo[2,3-b]pyridin-5-yl]methyl}-4-pyrimidinamine hydrochloride] | ≤ 10 |  |
| Cc1c(NCc2cnc3[nH]c(C(F)(F)F)cc3c2)ncnc1C(C)F (stereo not drawn) [20 HCl] | ≤ 1 |  |
| CC(=O)c1cc(NCc2cnc3[nH]c(C(F)(F)F)cc3c2)ncn1 [Example 7, 1-[6-({[2-(Trifluoromethyl)-1H-pyrrolo[2,3-b]pyridin-5-yl]methyl}amino)-4-pyrimidinyl]ethanone] | ≤ 10 |  |
| Cc1c(NCc2cnc3[nH]c(C(F)(F)F)cc3c2)ncnc1C(F)(F)F [22 HCl, 5-Methyl-6-(trifluoromethyl)-N-{[2-(trifluoromethyl)-1H-pyrrolo[2,3-b]pyridin-5-yl]methyl}-4-pyrimidinamine hydrochloride] | ≤ 1 |  |
| CCc1cc(NCc2cnc3[nH]c(C(F)(F)F)cc3c2)ncn1 [Example 5, 6-Ethyl-N-{[2-(trifluoromethyl)-1H-pyrrolo[2,3-b]pyridin-5-yl]methyl}-4-pyrimidinamine] | ≤ 10 |  |
| FC(F)(F)c1cc(NCc2cnc3[nH]c(C(F)(F)F)cc3c2)ncn1 [Example 1, 6-(Trifluoromethyl)-N-{[2-(trifluoromethyl)-1H-pyrrolo[2,3-b]pyridin-5-yl]methyl}-4-pyrimidinamine] | ≤ 1 |  |
| CC(C)c1cc(NCc2cnc3[nH]c(C(F)(F)F)cc3c2)ncn1 [Example 2, 6-(1-Methylethyl)-N-{[2-(trifluoromethyl)-1H-pyrrolo[2,3-b]pyridin-5-yl]methyl}-4-pyrimidinamine] | ≤ 10 |  |
| CCc1cc(NCc2cnc3[nH]c(C(F)(F)F)cc3c2)ncn1.Cl [5 HCl, 6-Ethyl-N-{[2-(trifluoromethyl)-1H-pyrrolo[2,3-b]pyridin-5-yl]methyl}-4-pyrimidinamine HCl] |  | pEC50 Mean: * (pEC50 mean of at least 5.0) |
| Cc1c(CF)ncnc1NCc1cnc2[nH]c(C(F)(F)F)cc2c1 [24 HCl] | ≤ 10 |  |
| Cc1c(NCc2cnc3[nH]c(C(F)(F)F)cc3c2)ncnc1C1CC1 [25 HCl, 6-Cyclopropyl-5-methyl-N-{[2-(trifluoromethyl)-1H-pyrrolo[2,3-b)pyridin-5-yl]methyl}-4-pyrimidinamine hydrochloride] | ≤ 3.16 |  |
| N#CCc1cc(NCc2cnc3[nH]c(C(F)(F)F)cc3c2)ncn1 [Example 6, [6-({[2-(Trifluoromethyl)-1H-pyrrolo[2,3-b]pyridin-5-yl]methyl}amino)-4-pyrimidinyl]acetonitrile] | ≤ 10 |  |

Continued, in another order:

| EC50 [1] [µM] | Compound | also measured |
| --- | --- | --- |
| ≤ 1 | CC(C)(F)c1cc(NCc2cnc3[nH]c(C(F)(F)F)cc3c2)ncn1 [Example 15, 6-(1-Fluoro-1-methylethyl)-N-{[2-(trifluoromethyl)-1H-pyrrolo[2,3-b]pyridin-5-yl]methyl}-4-pyrimidinamine] | EC50 (read-out: pEC50 (converted)): 0.398 µM |
| ≤ 10 | CCc1ncnc(NCc2cnc3[nH]c(C(F)(F)F)cc3c2)c1C [Example 19, 6-Ethyl-5-methyl-N-{[2-(trifluoromethyl)-1H-pyrrolo[2,3-b]pyridin-5-yl]methyl}-4-pyrimidinamine] |  |
| ≤ 1 | [2H]C([2H])(Nc1cc(C(C)(C)F)ncn1)c1cnc2[nH]c(C(F)(F)F)cc2c1 [Example 15-d, 6-(1-Fluoro-1-methylethyl)-N-{[2-(trifluoromethyl)-1H-pyrrolo[2,3-b]pyridin-5-yl]methyl}-4-pyrimidinamine-d2] | EC50 (read-out: pEC50 (converted)): 0.631 µM |
| ≤ 10 | FC(F)(F)c1cc2cc(CNc3cc(C4CC4)ncn3)cnc2[nH]1 [Example 14, 6-Cyclopropyl-N-{[2-(trifluoromethyl)-1H-pyrrolo[2,3-b]pyridin-5-yl]methyl}-4-pyrimidinamine] |  |
| ≤ 10 | CC(F)c1cc(NCc2cnc3[nH]c(C(F)(F)F)cc3c2)ncn1 (stereo not drawn) [Example 9, 6-(1-Fluoroethyl)-N-{[2-(trifluoromethyl)-1H-pyrrolo[2,3-b]pyridin-5-yl]methyl}-4-pyrimidinamine] |  |
| ≤ 10 | FC(F)(F)c1cc2cc(CNc3cc(Cl)ncn3)ccc2[nH]1 [Example 13, 6-Chloro-N-{[2-(trifluoromethyl)-1H-indol-5-yl]methyl}-4-pyrimidinamine] |  |
| ≤ 3.16 | Cc1c(NCc2cnc3[nH]c(C(F)(F)F)cc3c2)ncnc1C(F)F [Example 23, 6-(difluoromethyl)-5-methyl-N-{[2-(trifluoromethyl)-1H-pyrrolo[2,3-b]pyridin-5-yl]methyl}-4-pyrimidinamine] |  |
| ≤ 3.16 | FC(F)(F)c1cc2cc(CNc3cc(Cl)ncn3)cnc2[nH]1 [Example 17, 6-Chloro-N-{[2-(trifluoromethyl)-1H-pyrrolo[2,3-b]pyridin-5-yl]methyl}-4-pyrimidinamine] |  |
| ≤ 3.16 | [2H]C([2H])(Nc1cc(C(C)(F)F)ncn1)c1cnc2[nH]c(C(F)(F)F)cc2c1 [Example 8-d] | EC50 (read-out: pEC50 (converted)): 1.26 µM |
| ≤ 3.16 | FC(F)(F)c1cc(NCc2ccc3[nH]c(C(F)(F)F)cc3c2)ncn1 [Example 12, 6-(Trifluoromethyl)-N-{[2-(trifluoromethyl)-1H-indol-5-yl]methyl}-4-pyrimidinamine] |  |
| ≤ 3.16 | FC(F)c1cc(NCc2cnc3[nH]c(C(F)(F)F)cc3c2)ncn1 [Example 10, 6-(Difluoromethyl)-N-{[2-(trifluoromethyl)-1H-pyrrolo[2,3-b]pyridin-5-yl]methyl}-4-pyrimidinamine] |  |
| ≤ 3.16 | FCc1cc(NCc2cnc3[nH]c(C(F)(F)F)cc3c2)ncn1 [Example 11, 6-(Fluoromethyl)-N-{[2-(trifluoromethyl)-1H-pyrrolo[2,3-b]pyridin-5-yl]methyl}-4-pyrimidinamine] |  |
| ≤ 10 | CCc1cc(NCc2ccc3[nH]c(C(F)(F)F)cc3c2)ncn1 [Example 18, 6-Ethyl-N-{[2-(trifluoromethyl)-1H-indol-5-yl]methyl}-4-pyrimidinamine] |  |

— US8796283B2, “Indole and azaindole modulators of the alpha 7 nachr” (Proximagen Limited, priority 2009, dated 2014)
